pIC50: −log10 of the molar value.
Experiments:
[1] = biological target: T1, glycine transporter-1 (GlyT-1) (Homo sapiens, UniProt P48067); experiment: [14C]glycine uptake assay in JAR cells endogenously expressing GlyT-1 (scintillation proximity); assay type: cell-based; settings: JAR cells, [14C]glycine 5 μM, 3 hour incubation; read-out: GlyT-1 IC50
T1 construct: JAR cells (ATCC#HTB-144), which endogenously express GlyT-1; host or cells: JAR human choriocarcinoma cells
T1 sequence (P48067 1-706): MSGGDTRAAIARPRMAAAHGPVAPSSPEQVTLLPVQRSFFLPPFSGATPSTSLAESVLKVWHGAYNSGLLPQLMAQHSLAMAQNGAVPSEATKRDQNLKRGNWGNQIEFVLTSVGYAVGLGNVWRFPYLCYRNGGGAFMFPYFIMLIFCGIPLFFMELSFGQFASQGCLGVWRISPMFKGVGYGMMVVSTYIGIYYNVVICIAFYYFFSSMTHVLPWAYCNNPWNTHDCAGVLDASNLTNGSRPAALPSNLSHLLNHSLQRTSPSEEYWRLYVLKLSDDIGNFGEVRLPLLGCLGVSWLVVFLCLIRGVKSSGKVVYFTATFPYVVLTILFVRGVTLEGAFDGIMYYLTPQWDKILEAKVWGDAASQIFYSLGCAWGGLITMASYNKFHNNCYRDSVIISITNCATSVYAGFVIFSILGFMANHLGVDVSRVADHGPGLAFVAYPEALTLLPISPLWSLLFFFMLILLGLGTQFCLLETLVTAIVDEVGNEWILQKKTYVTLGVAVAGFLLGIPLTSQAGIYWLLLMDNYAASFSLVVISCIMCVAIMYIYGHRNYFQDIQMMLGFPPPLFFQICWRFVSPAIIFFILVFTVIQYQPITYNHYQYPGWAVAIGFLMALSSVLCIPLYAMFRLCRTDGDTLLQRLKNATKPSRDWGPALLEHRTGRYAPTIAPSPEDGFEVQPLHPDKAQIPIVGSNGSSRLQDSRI
Outline: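 IC50 comes from a four-parameter fit of nine-point, duplicate curves measuring inhibition of 5 μM [14C]glycine uptake, read by scintillation proximity after 3 h at 37 °C. Cells are human JAR, which express GlyT-1 endogenously, given 10 min compound pre-treatment in pH 7.4 buffer with 5 mM alanine and 0.75% DMSO.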

Row | SMILES | pIC50 [1] | melting point [°C]
1 | Cl.Cn1cnc(S(=O)(=O)N2CCN(C3(CNC(=O)c4ccc(C(F)(F)F)cc4Cl)CCC(F)(F)CC3)CC2)n1 [compound 281, 2-Chloro-N-((4,4-difluoro-1-(4-(1-methyl-1H-1,2,4-triazol-3-ylsulfonyl)piperazin-1-yl)cyclohexyl)methyl)-4-(trifluoromethyl)benzamide Hydrochloride] | 6.55 | 180 to 185
2 | CC(O)CS(=O)(=O)N1CCN(C2(CNC(=O)c3ccc(C(F)(F)F)cc3Cl)CCC(F)(F)CC2)CC1.Cl (single isomer, unassigned; enantiomer a) [compound 278, (Enantiomer A)-2-Chloro-N-((4,4-difluoro-1-(4-(2-hydroxypropylsulfonyl)piperazin-1-yl)cyclohexyl)methyl)-4-(trifluoromethyl) benzamide Hydrochloride] | 7.62 | 80 to 82
